In brackets after ≈: the same amount, converted by molar mass.
What was measured:
Type in all cases: cell-based
Entercoccus faecalis 276 = assay: MIC, standard broth micro-dilution assay
Experimental: (§1) The formula I compounds have in vitro and in vivo activity against Gram-positive pathogenic bacteria. The MIC's were determined using a standard broth micro-dilution assay.

[1] = tested on: Entercoccus faecalis 2041; assay: MIC, standard broth micro-dilution assay
Experimental: as §1

[2] = tested on: Entercoccus gallinarum 245; assay: MIC, standard broth micro-dilution assay
Experimental: as §1

[3] = tested on: Staphylococcus aureus SA1199B
Experimental: (§2) The MIC's were determined using a standard broth micro-dilution assay.

[4] = tested on: Staphylococcus aureus S13E
Experimental: as §2

[5] = tested on: Staphylococcus aureus SA1199A; assay: MIC, standard broth micro-dilution assay
Experimental: as §2

[6] = tested on: Staphylococcus epidermidis 270; assay: MIC, standard broth micro-dilution assay
Experimental: as §2

[7] = tested on: Staphylococcus haemolyticus 105; assay: MIC, standard broth micro-dilution assay
Experimental: as §2

[8] = tested on: Staphylococcus aureus X400; assay: MIC, standard broth micro-dilution assay
Experimental: as §2

[9] = tested on: Staphylococcus aureus 447; assay: MIC, standard broth micro-dilution assay
Experimental: as §2

[10] = tested on: Staphylococcus aureus 491; assay: MIC, standard broth micro-dilution assay
Experimental: as §2

Entercoccus faecium 180 = assay: MIC, standard broth micro-dilution assay
Experimental: as §2

[11] = tested on: Staphylococcus aureus 489; assay: MIC, standard broth micro-dilution assay
Experimental: as §2

[12] = tested on: Haemophilus influenzae RD; assay: MIC, standard broth micro-dilution assay
Experimental: as §2

[13] = tested on: Staphylococcus aureus X778; assay: MIC, standard broth micro-dilution assay
Experimental: as §2

[14] = tested on: Staphylococcus aureus SA1199; assay: MIC, standard broth micro-dilution assay
Experimental: as §2

[15] = tested on: Staphylococcus aureus 446; assay: MIC, standard broth micro-dilution assay
Experimental: as §2

[16] = tested on: Staphylococcus haemolyticus 415; assay: MIC, standard broth micro-dilution assay
Experimental: as §2

Escherichia coli EC14 = assay: MIC, standard broth micro-dilution assay
Experimental: as §2

[17] = tested on: Entercoccus faecium 180-1; assay: MIC, standard broth micro-dilution assay
Experimental: as §2

[18] = tested on: Streptococcus pneumoniae P1; assay: MIC, standard broth micro-dilution assay
Experimental: as §2

[19] = tested on: Leuconostoc mesenteroides; assay: MIC, agar dilution on brain-heart infusion agar; conditions: Leuconostoc mesenteroides (mean of 4)
Pedicoccus acidilacti = assay: MIC, agar dilution on brain-heart infusion agar; conditions: Pedioccccus acidilacti (mean of 10)
Lactobacillus confusus = assay: MIC, agar dilution on brain-heart infusion agar
Pediococcus pentosaceus = assay: MIC, agar dilution on brain-heart infusion agar; conditions: Pediococcus pentosaceus (mean of 2)
Leuconostoc lactis = assay: MIC, agar dilution on brain-heart infusion agar; conditions: Leuconostoc lactis (mean of 2)

| Compound | MIC (Entercoccus faecalis 276) | MIC [1] | MIC [2] | MIC [3] | MIC [4] | MIC [5] | MIC [6] | MIC [7] | MIC [8] | MIC [9] | MIC [10] | MIC (Entercoccus faecium 180) | MIC [11] | MIC [12] | MIC [13] | MIC [14] | MIC [15] | MIC [16] | MIC (Escherichia coli EC14) | MIC [17] | other results |
| --- | --- | --- | --- | --- | --- | --- | --- | --- | --- | --- | --- | --- | --- | --- | --- | --- | --- | --- | --- | --- | --- |
| CNC(CC(C)C)C(=O)NC1C(=O)NC(CC(N)=O)C(=O)NC2C(=O)NC3C(=O)NC(C(=O)NC(C(=O)O)c4cc(O)cc(O)c4-c4cc3ccc4O)C(OC3CC(C)(N)C(O)C(C)O3)c3ccc(c(Cl)c3)Oc3cc2cc(c3OC2OC(CO)C(O)C(O)C2OC2CC(C)(NCc3cc(-c4ccccc4)nc4ccc(OC)cc34)C(O)C(C)O2)Oc2ccc(cc2Cl)C1O (stereo not shown) [Compound 45, 4-[2-phenyl-6-methoxy]quinoylmethyl] | 0.25 µg/mL (≈ 0.136 µM) | 0.125 µg/mL (≈ 0.0679 µM) | 0.5 µg/mL (≈ 0.272 µM) | 1 µg/mL (≈ 0.544 µM) | 0.5 µg/mL (≈ 0.272 µM) | ≤ 0.06 µg/mL | 8 µg/mL (≈ 4.35 µM) | 16 µg/mL (≈ 8.7 µM) | 0.25 µg/mL (≈ 0.136 µM) | 16 µg/mL (≈ 8.7 µM) | 1 µg/mL (≈ 0.544 µM) | 1 µg/mL (≈ 0.544 µM) | 0.5 µg/mL (≈ 0.272 µM) | > 64 µg/mL | 0.25 µg/mL (≈ 0.136 µM) | 2 µg/mL (≈ 1.09 µM) | 1 µg/mL (≈ 0.544 µM) | 8 µg/mL (≈ 4.35 µM) | > 64 µg/mL | ≤ 0.06 µg/mL | MIC [18]: ≤ 0.06 µg/mL |
| CNC(CC(C)C)C(=O)NC1C(=O)NC(CC(N)=O)C(=O)NC2C(=O)NC3C(=O)NC(C(=O)NC(C(=O)O)c4cc(O)cc(O)c4-c4cc3ccc4O)C(OC3CC(C)(N)C(O)C(C)O3)c3ccc(c(Cl)c3)Oc3cc2cc(c3OC2OC(CO)C(O)C(O)C2OC2CC(C)(NCc3ccc4c(c3)OCO4)C(O)C(C)O2)Oc2ccc(cc2Cl)C1O (stereo not shown) [Compound 48, 3,4-methylenedioxylbenzyl] | ≤ 0.06 µg/mL | ≤ 0.06 µg/mL | 1 µg/mL (≈ 0.579 µM) | 1 µg/mL (≈ 0.579 µM) | ≤ 0.06 µg/mL | ≤ 0.06 µg/mL | 1 µg/mL (≈ 0.579 µM) | 2 µg/mL (≈ 1.16 µM) | ≤ 0.06 µg/mL | 2 µg/mL (≈ 1.16 µM) | 0.25 µg/mL (≈ 0.145 µM) | 1 µg/mL (≈ 0.579 µM) | ≤ 0.06 µg/mL | > 64 µg/mL | ≤ 0.06 µg/mL | 0.25 µg/mL (≈ 0.145 µM) | 0.125 µg/mL (≈ 0.0724 µM) | 8 µg/mL (≈ 4.63 µM) | > 64 µg/mL | ≤ 0.06 µg/mL | MIC [18]: ≤ 0.06 µg/mL |
| CNC(CC(C)C)C(=O)NC1C(=O)NC(CC(N)=O)C(=O)NC2C(=O)NC3C(=O)NC(C(=O)NC(C(=O)O)c4cc(O)cc(O)c4-c4cc3ccc4O)C(OC3CC(C)(N)C(O)C(C)O3)c3ccc(c(Cl)c3)Oc3cc2cc(c3OC2OC(CO)C(O)C(O)C2OC2CC(C)(NCc3ccc(C(c4ccccc4)c4ccccc4)cc3)C(O)C(C)O2)Oc2ccc(cc2Cl)C1O (stereo not shown) [Compound 46, 4-diphenylmethylbenzyl] | 0.5 µg/mL (≈ 0.27 µM) | 1 µg/mL (≈ 0.541 µM) | 0.25 µg/mL (≈ 0.135 µM) | 2 µg/mL (≈ 1.08 µM) | 2 µg/mL (≈ 1.08 µM) | 0.5 µg/mL (≈ 0.27 µM) | 2 µg/mL (≈ 1.08 µM) | 2 µg/mL (≈ 1.08 µM) | 2 µg/mL (≈ 1.08 µM) | 2 µg/mL (≈ 1.08 µM) | 2 µg/mL (≈ 1.08 µM) | 0.5 µg/mL (≈ 0.27 µM) | 1 µg/mL (≈ 0.541 µM) | > 64 µg/mL | 2 µg/mL (≈ 1.08 µM) | 2 µg/mL (≈ 1.08 µM) | 1 µg/mL (≈ 0.541 µM) | 2 µg/mL (≈ 1.08 µM) | > 64 µg/mL | ≤ 0.06 µg/mL | MIC [18]: ≤ 0.06 µg/mL |
| CNC(CC(C)C)C(=O)NC1C(=O)NC(CC(N)=O)C(=O)NC2C(=O)NC3C(=O)NC(C(=O)NC(C(=O)O)c4cc(O)cc(O)c4-c4cc3ccc4O)C(OC3CC(C)(N)C(O)C(C)O3)c3ccc(c(Cl)c3)Oc3cc2cc(c3OC2OC(CO)C(O)C(O)C2OC2CC(C)(NCc3ccc(C(O)c4ccccc4)cc3)C(O)C(C)O2)Oc2ccc(cc2Cl)C1O (stereo not drawn) [Compound 109, 4-[alpha-hydroxybenzyl]benzyl] | ≤ 0.06 µg/mL | ≤ 0.06 µg/mL | ≤ 0.06 µg/mL | 0.5 µg/mL (≈ 0.28 µM) | 0.25 µg/mL (≈ 0.14 µM) | ≤ 0.06 µg/mL | 0.25 µg/mL (≈ 0.14 µM) | 1 µg/mL (≈ 0.559 µM) | ≤ 0.06 µg/mL | 1 µg/mL (≈ 0.559 µM) | 0.25 µg/mL (≈ 0.14 µM) | 0.25 µg/mL (≈ 0.14 µM) | ≤ 0.06 µg/mL | 32 µg/mL (≈ 17.9 µM) | ≤ 0.06 µg/mL | ≤ 0.06 µg/mL | 1 µg/mL (≈ 0.559 µM) | 4 µg/mL (≈ 2.24 µM) |  | ≤ 0.06 µg/mL |  |
| CNC(CC(C)C)C(=O)NC1C(=O)NC(CC(N)=O)C(=O)NC2C(=O)NC3C(=O)NC(C(=O)NC(C(=O)O)c4cc(O)cc(O)c4-c4cc3ccc4O)C(OC3CC(C)(N)C(O)C(C)O3)c3ccc(c(Cl)c3)Oc3cc2cc(c3OC2OC(CO)C(O)C(O)C2OC2CC(C)(NCc3c(O)ccc4ccccc34)C(O)C(C)O2)Oc2ccc(cc2Cl)C1O (stereo not shown) [Compound 44] | 0.125 µg/mL (≈ 0.0715 µM) | ≤ 0.06 µg/mL | 0.5 µg/mL (≈ 0.286 µM) | 0.25 µg/mL (≈ 0.143 µM) | 0.25 µg/mL (≈ 0.143 µM) | ≤ 0.06 µg/mL | 0.5 µg/mL (≈ 0.286 µM) | 2 µg/mL (≈ 1.14 µM) | ≤ 0.06 µg/mL | 1 µg/mL (≈ 0.572 µM) |  | 8 µg/mL (≈ 4.57 µM) | ≤ 0.06 µg/mL | > 64 µg/mL | ≤ 0.06 µg/mL | 0.25 µg/mL (≈ 0.143 µM) | 0.25 µg/mL (≈ 0.143 µM) | 4 µg/mL (≈ 2.29 µM) | > 64 µg/mL | ≤ 0.06 µg/mL |  |
| CNC(CC(C)C)C(=O)NC1C(=O)NC(CC(N)=O)C(=O)NC2C(=O)NC3C(=O)NC(C(=O)NC(C(=O)O)c4cc(O)cc(O)c4-c4cc3ccc4O)C(OC3CC(C)(N)C(O)C(C)O3)c3ccc(c(Cl)c3)Oc3cc2cc(c3OC2OC(CO)C(O)C(O)C2OC2CC(C)(NCc3ccc(Cc4ccccc4)cc3)C(O)C(C)O2)Oc2ccc(cc2Cl)C1O (stereo not shown) [Compound 50, 4-benzylbenzyl] | 0.25 µg/mL (≈ 0.141 µM) | ≤ 0.06 µg/mL | 1 µg/mL (≈ 0.564 µM) | 2 µg/mL (≈ 1.13 µM) |  | ≤ 0.06 µg/mL | 0.5 µg/mL (≈ 0.282 µM) | 0.5 µg/mL (≈ 0.282 µM) |  | 0.5 µg/mL (≈ 0.282 µM) | 0.5 µg/mL (≈ 0.282 µM) | 0.25 µg/mL (≈ 0.141 µM) | ≤ 0.06 µg/mL | > 64 µg/mL |  | 1 µg/mL (≈ 0.564 µM) | 0.5 µg/mL (≈ 0.282 µM) | 1 µg/mL (≈ 0.564 µM) | > 64 µg/mL | ≤ 0.06 µg/mL | MIC [19]: 64 µg/mL (≈ 36.1 µM); MIC (Pedicoccus acidilacti): 51 µg/mL (≈ 28.8 µM); MIC (Lactobacillus confusus): 64 µg/mL (≈ 36.1 µM); MIC [18]: ≤ 0.06 µg/mL; MIC (Pediococcus pentosaceus): 64 µg/mL (≈ 36.1 µM); MIC (Leuconostoc lactis): 64 µg/mL (≈ 36.1 µM) |
| CNC(CC(C)C)C(=O)NC1C(=O)NC(CC(N)=O)C(=O)NC2C(=O)NC3C(=O)NC(C(=O)NC(C(=O)O)c4cc(O)cc(O)c4-c4cc3ccc4O)C(OC3CC(C)(N)C(O)C(C)O3)c3ccc(c(Cl)c3)Oc3cc2cc(c3OC2OC(CO)C(O)C(O)C2OC2CC(C)(NCc3ccc(NC(=O)c4cccc(F)c4)cc3)C(O)C(C)O2)Oc2ccc(cc2Cl)C1O (stereo not shown) [Compound 194, 4-[(3-fluorobenzoyl)amino]benzyl] |  | ≤ 0.06 µg/mL | 2 µg/mL (≈ 1.1 µM) |  |  |  |  |  |  |  |  |  |  | 32 µg/mL (≈ 17.6 µM) |  |  |  |  |  |  |  |
| CNC(CC(C)C)C(=O)NC1C(=O)NC(CC(N)=O)C(=O)NC2C(=O)NC3C(=O)NC(C(=O)NC(C(=O)O)c4cc(O)cc(O)c4-c4cc3ccc4O)C(OC3CC(C)(N)C(O)C(C)O3)c3ccc(c(Cl)c3)Oc3cc2cc(c3OC2OC(CO)C(O)C(O)C2OC2CC(C)(NCc3ccc4cc(C)ccc4c3)C(O)C(C)O2)Oc2ccc(cc2Cl)C1O (stereo not shown) [Compound 189] |  | ≤ 0.06 µg/mL | 1 µg/mL (≈ 0.573 µM) |  |  |  |  |  |  |  |  |  |  | > 64 µg/mL |  |  |  |  |  |  |  |

Reference: patent US5843889A, “Glycopeptide antibiotic derivatives” (Eli Lilly and Company, priority 1997, dated 1998)
